Results on four molecules are retold here after US10485235B2, “Aryloxypyrimidinyl ethers as herbicides” (FMC Corporation, priority 2015, dated 2019).

Common to all, as to format: in vivo
Test [1] concerns barnyardgrass (Echinochloa crus-galli). Briefly: Test A preemergence, barnyardgrass. The note with it: Echinochloa crus-galli, pre-emergence, 240 h, Preemergence, 0 to 100 scale (0 no effect, 100 complete control), read-out: Plant response rating, Barnyardgrass; for pest or weed control at 31 g/ha: 31 g ai/ha; for pest or weed control at 125 g/ha: 125 g ai/ha. An outline of the steps: (§1)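 Scores (0 no effect to 100 complete control) come from visual comparison of treated and untreated plants kept about 10 days in a greenhouse. Growth medium was a loam/sand blend; preemergence treatment was a directed soil spray, postemergence treatment went onto plants at the 1–2 leaf stage.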

The subject of test [2] is pigweed (Amaranthus retroflexus). Briefly: Test A postemergence, pigweed. The note with it: Amaranthus retroflexus, post-emergence, 240 h, postemergence, 0 to 100 scale, 0 is no effect, 100 is complete control, approximately 10 days, read-out: Plant response rating, Pigweed; for pest or weed control at 31 g/ha: 31 g ai/ha; for pest or weed control at 125 g/ha: 125 g ai/ha. A digest of the protocol:
as §1

Test [3] deals with galium (catchweed bedstraw, Galium aparine). Briefly: Test A postemergence, galium. Conditions: Galium, post-emergence, 240 h, postemergence, 0 to 100 scale, 0 is no effect, 100 is complete control, approximately 10 days, read-out: Plant response rating, Galium; for pest or weed control at 31 g/ha: 31 g ai/ha; for pest or weed control at 125 g/ha: 125 g ai/ha. An outline of the steps:
as §1

In test [4] the test system is foxtail, giant (giant foxtail, Setaria faberii). The test is described as follows: Test A postemergence, giant foxtail. Conditions: Setaria faberi, post-emergence, 240 h, postemergence, 0 to 100 scale, 0 is no effect, 100 is complete control, approximately 10 days, read-out: Plant response rating, Foxtail, Giant; for pest or weed control at 31 g/ha: 31 g ai/ha; for pest or weed control at 125 g/ha: 125 g ai/ha. An outline of the steps: as §1

For test [5], the system named is pigweed (Amaranthus retroflexus). The test is described as follows: Test A preemergence, pigweed. Conditions: Amaranthus retroflexus, pre-emergence, 240 h, Preemergence, 0 to 100 scale (0 no effect, 100 complete control), read-out: Plant response rating, Pigweed; for pest or weed control at 31 g/ha: 31 g ai/ha; for pest or weed control at 125 g/ha: 125 g ai/ha. An outline of the steps:
as §1

In test [6] the test system is blackgrass (Alopecurus myosuroides). Briefly: Test A postemergence, blackgrass. Conditions: Alopecurus myosuroides, post-emergence, 240 h, postemergence, 0 to 100 scale, 0 is no effect, 100 is complete control, approximately 10 days, read-out: Plant response rating, Blackgrass; for pest or weed control at 31 g/ha: 31 g ai/ha; for pest or weed control at 125 g/ha: 125 g ai/ha. A digest of the protocol: as §1

Test [7] concerns kochia (Kochia scoparia). The test is described as follows: Test A postemergence, kochia. The note with it: Bassia scoparia, post-emergence, 240 h, postemergence, 0 to 100 scale, 0 is no effect, 100 is complete control, approximately 10 days, read-out: Plant response rating, Kochia; for pest or weed control at 31 g/ha: 31 g ai/ha; for pest or weed control at 125 g/ha: 125 g ai/ha. A digest of the protocol:
as §1

The subject of test [8] is ryegrass, Italian (Italian ryegrass, Lolium multiflorum). Briefly: Test A preemergence, Italian ryegrass. The note with it: Lolium multiflorum, pre-emergence, 240 h, Preemergence, 0 to 100 scale (0 no effect, 100 complete control), read-out: Plant response rating, Ryegrass, Italian; for pest or weed control at 31 g/ha: 31 g ai/ha; for pest or weed control at 125 g/ha: 125 g ai/ha. A digest of the protocol: as §1

For test [9], the system named is wheat (Triticum aestivum). The test is described as follows: Test A postemergence, wheat. Conditions: Triticum aestivum, post-emergence, 240 h, postemergence, 0 to 100 scale, 0 is no effect, 100 is complete control, approximately 10 days, read-out: Plant response rating, Wheat; for plant injury at 31 g/ha: 31 g ai/ha; for plant injury at 125 g/ha: 125 g ai/ha. An outline of the steps:
as §1

In test [10] the test system is ragweed (common ragweed, Ambrosia elatior). The test is described as follows: Test A postemergence, ragweed. Conditions: Ambrosia artemisiifolia, post-emergence, 240 h, postemergence, 0 to 100 scale, 0 is no effect, 100 is complete control, approximately 10 days, read-out: Plant response rating, Ragweed; for pest or weed control at 31 g/ha: 31 g ai/ha; for pest or weed control at 125 g/ha: 125 g ai/ha. A digest of the protocol: as §1

Test [11] relates to kochia (Kochia scoparia). Briefly: Test A preemergence, kochia. Conditions: Bassia scoparia, pre-emergence, 240 h, Preemergence, 0 to 100 scale (0 no effect, 100 complete control), read-out: Plant response rating, Kochia; for pest or weed control at 31 g/ha: 31 g ai/ha; for pest or weed control at 125 g/ha: 125 g ai/ha. A digest of the protocol:
as §1

Test [12] deals with sedge, umbrella (small-flower umbrella sedge, Cyperus difformis). The test is described as follows: Test B flooded paddy test, umbrella sedge. The note with it: Cyperus difformis; 250 g ai/ha, Flood; visual rating after 13 to 15 days; scale 0 to 100, 0 is no effect, 100 is complete control; read-out: Plant response rating, Sedge, Umbrella. A digest of the protocol:
(§2)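 Plants grown to the 2-leaf stage; pots flooded to 3 cm above soil and compounds applied directly into the paddy water, depth held throughout. After 13 to 15 days in the greenhouse, injury was rated visually against untreated controls on a 0–100 scale (0 no effect, 100 complete control).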

The test system of a further test is rice (Oryza sativa). The test is described as follows: Test B flooded paddy test, rice. The note with it: Oryza sativa; 250 g ai/ha, Flood; visual rating after 13 to 15 days; scale 0 to 100, 0 is no effect, 100 is complete control; read-out: Plant response rating, Rice. An outline of the steps:
as §2

Test [13] concerns ducksalad (Heteranthera limosa). Briefly: Test B flooded paddy test, ducksalad. The note with it: Heteranthera limosa; 250 g ai/ha, Flood; visual rating after 13 to 15 days; scale 0 to 100, 0 is no effect, 100 is complete control; read-out: Plant response rating, Ducksalad. A digest of the protocol:
as §2

For test [14], the system named is barnyardgrass (Echinochloa crus-galli). Briefly: Test B flooded paddy test, barnyardgrass. The note with it: Echinochloa crus-galli; 250 g ai/ha, Flood; visual rating after 13 to 15 days; scale 0 to 100, 0 is no effect, 100 is complete control; read-out: Plant response rating, Barnyardgrass. An outline of the steps:
as §2

As to `N#Cc1cccc(Oc2ncc(Cl)cn2)c1OCC(F)(F)F` [Compound 1], the pest or weed control at 31 g/ha in test [1] was 10%; in [2], 60%; in test [3], 10%; in [4] it was 10%; in test [5] it was 100%; in test [6] it was 0%. Besides, the pest or weed control at 31 g/ha stood at 60% in the test on kochia (Kochia scoparia) [7], 0% in test [8], 10% in test [10] and 60% in the test on kochia (Kochia scoparia) [11]. Moreover, the pest or weed control at 125 g/ha in test [1] turned out to be 80%; in test [2], 90%; in test [3], 40%; in test [4], 20%; in [5], 100%; in [6], 20%. Further, the pest or weed control at 125 g/ha in the test with kochia (Kochia scoparia) [7] is 80%; in test [8] it was 10%; in test [10], 10%; in the test on kochia (Kochia scoparia) [11], 100%. Besides, the plant injury at 31 g/ha in test [9] was 0%. For the same molecule, the plant injury at 125 g/ha in [9] was 0%.

Regarding `N#Cc1cccc(Oc2ncc(F)cn2)c1OCCCC(F)(F)F` [Compound 4, 3-[(5-fluoro-2-pyrimidinyl)oxy]-2-(4,4,4-trifluorobutoxy)benzonitrile], the pest or weed control at 31 g/ha is 60% in [1]; 100% in [2]; 50% in test [3]; 70% in [4]; 90% in test [5]; 40% in test [6]. In addition, the pest or weed control at 31 g/ha in the test with kochia (Kochia scoparia) [7] was found to be 90%; in [8], 10%; in [10], 0%; with kochia (Kochia scoparia) [11] it was 40%. Further, the pest or weed control at 125 g/ha in test [1] is 100%; in [2] it was 100%; in test [3], 90%; in test [4] it was 100%; in test [5] it was 100%; in test [6], 90%. Moreover, the pest or weed control at 125 g/ha was 100% in the test with kochia (Kochia scoparia) [7], 60% in test [8], 20% in test [10] and 90% in the test on kochia (Kochia scoparia) [11]. Besides, the pest or weed control at 250 g/ha stood at 95% in test [12], 90% in test [13] and 50% in test [14]. Also, the plant injury at 250 g/ha in the test with rice (Oryza sativa) is 30%. Besides, in [9], the plant injury at 31 g/ha was found to be 20%. Further, in [9], the plant injury at 125 g/ha worked out at 20%.

With `N#Cc1cccc(Oc2ncc(Cl)cn2)c1OCCCC(F)(F)F` [Compound 5, 3-[(5-chloro-2-pyrimidinyl)oxy]-2-(4,4,4-trifluorobutoxy)benzonitrile], the pest or weed control at 31 g/ha turned out to be 80% in test [1]; 100% in [2]; 80% in test [3]; 60% in test [4]; 90% in [5]; 30% in test [6]. The pest or weed control at 31 g/ha with kochia (Kochia scoparia) [7] worked out at 100%; in test [8], 20%; in test [10], 10%; with kochia (Kochia scoparia) [11], 90%. Moreover, the pest or weed control at 125 g/ha came out at 100% in test [1]; 100% in [2]; 100% in [3]; 100% in test [4]; 90% in [5]; 90% in test [6]. The pest or weed control at 125 g/ha is 100% in the test on kochia (Kochia scoparia) [7], 60% in test [8], 30% in test [10] and 100% in the test with kochia (Kochia scoparia) [11]. Besides, the pest or weed control at 250 g/ha in test [12] came out at 95%; in test [13] it was 90%; in [14], 50%. Further, in the test with rice (Oryza sativa), the plant injury at 250 g/ha stood at 40%. The plant injury at 31 g/ha in [9] came to 20%. In addition, the plant injury at 125 g/ha in test [9] was 40%.

Turning to `N#Cc1cccc(Oc2ncc(F)cn2)c1OCC(F)(F)F` [Compound 41], the pest or weed control at 31 g/ha turned out to be 0% in test [1]; 30% in test [2]; 10% in test [3]; 0% in test [4]; 100% in test [5]; 0% in [6]. In addition, the pest or weed control at 31 g/ha with kochia (Kochia scoparia) [7] was 30%; in test [8] it was 0%; in test [10], 10%; in the test with kochia (Kochia scoparia) [11], 50%. Further, the pest or weed control at 125 g/ha in [1] was 40%; in [2], 70%; in test [3], 20%; in test [4], 0%; in test [5] it was 100%; in [6], 10%. For the same molecule, the pest or weed control at 125 g/ha in the test on kochia (Kochia scoparia) [7] was determined as 60%; in [8] it was 10%; in test [10], 10%; in the test on kochia (Kochia scoparia) [11], 100%. The plant injury at 31 g/ha in test [9] stood at 0%. Further, the plant injury at 125 g/ha in test [9] amounted to 0%.
